{"source": "patent US20210038577A1", "about": "“THIOREDOXIN REDUCTASE INHIBITORS FOR USE IN THE TREATMENT OF CANCER” (Cinda Pharma AB, priority 2018, published 2021)", "key": {"MDA-MB-453 cells": {"system": "MDA-MB-453 cells", "assay": "CellQuanti-Blue cell viability assay, MDA-MB-453", "format": "cell-based", "description": "Cell viability was then assessed using the CellQuanti assay. Relative cell viability was determined using DMSO only and blank controls.\nCells were plated at 2000 cells/well into 96-well plates in media containing 10% FBS. […] CellQuanti-Blue cell viability reagent was added to each well and the plates were subsequently incubated at 37° C. for 3 hours. Viability was determined fluorometrically using an Enspire plate reader […] excitation: 530 nm, emission: 590 nm. Viability was normalized to DMSO controls and blank wells with media."}, "[1]": {"system": "immune cells isolated from human blood donors (neutrophils, PBMC, monocytes, CD8+, CD4+, Tregs)", "assay": "Viability of isolated immune cells (MTT assay)", "format": "cell-based", "conditions": "24 h, up to 33 μM", "description": "Viability of neutrophils after treatment with OT-1096 for 24 h was assessed using donated blood from a healthy volunteer (HBsAg, HIV I&II negative), (Blood collection date: 1 Jun. 2017) where neutrophils were isolated using dextran sedimentation followed by hypotonic lysis and final isolation by Histopaque 1077 (Sigma-Aldrich). Viability was assessed using an MTT assay.\nViability of PBMC (peripheral blood mononuclear cells) after treatment with OT-1096 for 24 h was assessed using donated blood from two different donors. Donor-1, a healthy volunteer (HBsAg, HIV I&II negative), (Blood collection date: 1 Jun. 2017). […] Viability was assessed using an MTT assay.\nViability of monocytes after treatment with OT-1096 for 24 h was assessed using donated blood from a healthy volunteer (HBsAg, HIV I&II negative), (Blood collection date: 8 Jun. 2017) where monocytes was isolated by Histopaque 1077 (Sigma-Aldrich) followed by purification with MiniMACS system of ‘Miltenyi Biotec’ using CD14 microbeads (Cat No. 130-050-201). Viability was assessed using an MTT assay. […]\nViability of CD4+ cells after treatment with OT-1096 for 24 h was assessed using donated blood from a healthy volunteer (HBsAg, HIV I&II negative) where CD4+ cells were isolated by Histopaque 1077 (Sigma-Aldrich) followed by purification with MiniMACS system of ‘Miltenyi Biotec’ using CD4+ T Cell Isolation Reagent (Cat No. 130-096-533). […]"}}}
{"smiles": "COc1ccc([N+](=O)[O-])c(S(=O)(=O)c2ccc(Cl)cc2)n1", "note": "[OT-1000, 2-((4-Chlorophenyl)sulfonyl)-6-methoxy-3-nitropyridine]", "values": [{"measurement": "sensitivity of MDA-MB-453 cells over time of exposure", "setting": "MDA-MB-453 cells; 24, 48, 72 hours (FIG. 2B)", "result": "increasingly sensitive"}, {"measurement": "potency relative to Iniparib in MDA-MB-453 cells", "setting": "MDA-MB-453 cells; CellQuanti-Blue, 24, 48 or 72 hours", "result": "more potent"}]}
{"smiles": "CCCCCCCCS(=O)(=O)c1nc(OC)ccc1[N+](=O)[O-]", "note": "[OT-1096, 6-methoxy-3-nitro-2-(octylsulfonyl)pyridine]", "values": [{"measurement": "cytotoxicity in isolated immune cell populations", "setting": "[1]", "result": "No (or low) cytotoxicity"}]}
